According to PubChem BioAssay AID1963980 (Molecular Pharmacology Branch, DTP, NCI, 2024):

System: 475296-252-R-J1-PDC spheroid viability
Assay: Anticancer human tumor 475296-252-R-J1-PDC patient-derived rectal carcinoma cell line growth inhibition [PI3K]
Details: spheroids with HUVEC and MSC; for IC50: curve of first compound; for viability, T/C: stronger effect = lower value
Excerpt: Combinatorial screen of targeted agents with the PI3K inhibitors inavolisib, alpelisib, duvelisib, and copanlisib in multi-cell type tumor spheroids
A high-throughput screen of multi-cell type tumor spheroids was designed to identify active combinations of targeted small molecules and PI3K pathway inhibitors. Complex spheroids include a stromal component modeled by human endothelial cells (HUVEC) and fibroblasts modeled by human mesenchymal stem cells (MSCs). The concentration ranges selected for each drug and investigational agent were based upon clinically achievable concentrations if the clinical Cmax of the agent was known.
Compounds. The drugs and investigational agents: inavolisib (NSC800729), alpelisib (NSC765974), duvelisib (NSC772469), copanlisib (NSC816437), ipatasertib (NSC767898), afuresertib (NSC778305), talazoparib (NSC767125), sapanisertib (NSC764658), selumetinib (NSC741078), tovorafenib (DAY101, NSC766906), vemurafenib (NSC761431), ravoxertinib (NSC781343), sotorasib (NSC818433), MRTX1133 (NSC 836407), abemaciclib (NSC 768073), palbociclib (NSC758247), venetoclax (NSC 766270), SY5609 (NSC837396), enzalutamide (NSC755605), and darolutamide (NSC825331), were obtained from the National Cancer Institute (NCI) Developmental Therapeutics Program Chemical Repository. The FDA-approved anticancer drug set is available from the NCI Developmental Therapeutics Program. […] The stock solutions were prepared in dimethyl sulfoxide (DMSO, Sigma-Aldrich, St. Louis, MO, cat. D2650) at 800-fold the tested concentration and stored at -70 degrees C prior to their use. All drugs and investigational agents were tested over a range starting from a high concentration at or near the clinical Cmax and decreasing in half-log increments. If the clinical Cmax for an agent had not been determined, the highest concentration tested was 10 microM.
Cell Culture. All cells were maintained in an incubator at 37 degrees C and 5% CO2 with 95% humidity. The PDC lines were cultured according to standard operating procedures established by the NCI PDMR (https://pdmr.cancer.gov/sops/default.htm). All PDCs were thawed and cultured in Matrigel-coated flasks prepared with a working solution of 1X Ham's F-12 nutrient mix, without supplementation (Invitrogen, Waltham, MA, cat. 11765054), 100 U/mL penicillin-streptomycin (Invitrogen, cat. 15140122), and 2.5% Matrigel (Corning Inc., Corning, NY, cat. 354248) for the first three passages. The 354836-022-R-J1-PDC, 475296-252-R-J1-PDC, and 997726-040-R-J2-PDC lines were cultured in 6A media, which includes advanced DMEM/F-12 (Thermo Fisher Scientific, cat. 12634028), 10 mM HEPES (Thermo Fisher Scientific, cat. 15630080), 1X GlutaMAX supplement (Thermo Fisher Scientific, cat. 35050061), 0.1 mg/mL primocin (InvivoGen, San Diego, CA, cat. ant-pm-2), 10% defined fetal bovine serum, heat inactivated (HyClone Laboratories Inc., Logan, UT, cat. SH30070.03HI), 50% L-WRN conditioned media (ATCC, cat. CRL-3276), 1.25 mM N-Acetyl-L-cysteine (Sigma-Aldrich, cat. A9165), 10 mM nicotinamide (Sigma-Aldrich, cat. N0636), 1X B-27 supplement (Thermo Fisher Scientific, cat. 17504044), 1X N-2 supplement (Thermo Fisher Scientific, cat. 17502048), and 10 microM Y-27632 dihydrochloride (Tocris Bioscience, Bristol, United Kingdom, cat. 1254). The 624824-186-R-J2-PDC line was cultured in 6C/Colon 1B media, which includes all 6A media components plus 50 ng/mL human EGF recombinant protein (Thermo Fisher Scientific, cat. PHG0311). […]

[1] = second compound 0.00316 µM, first compound 0.0316 µM
[2] = second compound 0.00316 µM, first compound 0.1 µM
[3] = second compound 0.01 µM, first compound 0.0316 µM
[4] = second compound 0.01 µM, first compound 0.1 µM
[5] = second compound 0.0316 µM, first compound 0.0316 µM
[6] = second compound 0.0316 µM, first compound 0.1 µM
[7] = second compound 0.1 µM, first compound 0.0316 µM
[8] = second compound 0.1 µM, first compound 0.1 µM
[9] = second compound 0.316 µM, first compound 0.0316 µM
[10] = second compound 0.316 µM, first compound 0.1 µM
[11] = second compound 1 µM, first compound 0.0316 µM
[12] = second compound 1 µM, first compound 0.1 µM
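Further: spheroids exposed to agents for seven days before readout.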

CC(=O)c1c(C)c2cnc(Nc3ccc(N4CCNCC4)cn3)nc2n(C2CCCC2)c1=O + CC(Nc1ccc2c(c1)OCCn1cc(N3C(=O)OCC3C(F)F)nc1-2)C(N)=O
IC50 (second compound 0.00316 µM): > 0.1 µM
IC50 (second compound 0.01 µM): > 0.1 µM
IC50 (second compound 0.0316 µM): > 0.1 µM
IC50 (second compound 0.1 µM): > 0.1 µM
IC50 (second compound 0.316 µM): > 0.1 µM
IC50 (second compound 1 µM): > 0.1 µM
viability, T/C (second compound 0.00316 µM, first compound 0.000316 µM): 93.5%
viability, T/C (second compound 0.00316 µM, first compound 0.001 µM): 86.6%
viability, T/C (second compound 0.00316 µM, first compound 0.00316 µM): 101%
viability, T/C (second compound 0.00316 µM, first compound 0.01 µM): 93.5%
viability, T/C [1]: 119%
viability, T/C [2]: 97.2%
viability, T/C (second compound 0.01 µM, first compound 0.000316 µM): 102%
viability, T/C (second compound 0.01 µM, first compound 0.001 µM): 91.3%
viability, T/C (second compound 0.01 µM, first compound 0.00316 µM): 94%
viability, T/C (second compound 0.01 µM, first compound 0.01 µM): 83.2%
viability, T/C [3]: 97%
viability, T/C [4]: 100%
viability, T/C (second compound 0.0316 µM, first compound 0.000316 µM): 97.5%
viability, T/C (second compound 0.0316 µM, first compound 0.001 µM): 101%
viability, T/C (second compound 0.0316 µM, first compound 0.00316 µM): 91.3%
viability, T/C (second compound 0.0316 µM, first compound 0.01 µM): 93.5%
viability, T/C [5]: 104%
viability, T/C [6]: 110%
viability, T/C (second compound 0.1 µM, first compound 0.000316 µM): 90.4%
viability, T/C (second compound 0.1 µM, first compound 0.001 µM): 91.8%
viability, T/C (second compound 0.1 µM, first compound 0.00316 µM): 100%
viability, T/C (second compound 0.1 µM, first compound 0.01 µM): 103%
viability, T/C [7]: 96.1%
viability, T/C [8]: 88.6%
viability, T/C (second compound 0.316 µM, first compound 0.000316 µM): 93.5%
viability, T/C (second compound 0.316 µM, first compound 0.001 µM): 96.2%
viability, T/C (second compound 0.316 µM, first compound 0.00316 µM): 83%
viability, T/C (second compound 0.316 µM, first compound 0.01 µM): 85.4%
viability, T/C [9]: 109%
viability, T/C [10]: 91.7%
viability, T/C (second compound 1 µM, first compound 0.000316 µM): 85.4%
viability, T/C (second compound 1 µM, first compound 0.001 µM): 90.1%
viability, T/C (second compound 1 µM, first compound 0.00316 µM): 87.2%
viability, T/C (second compound 1 µM, first compound 0.01 µM): 91.2%
viability, T/C [11]: 93.2%
viability, T/C [12]: 100%

CNC(=O)c1ccc(N2C(=S)N(c3ccc(C#N)c(C(F)(F)F)c3)C(=O)C2(C)C)cc1F + CC(Nc1ccc2c(c1)OCCn1cc(N3C(=O)OCC3C(F)F)nc1-2)C(N)=O
IC50 (second compound 0.00316 µM): > 10 µM
IC50 (second compound 0.01 µM): > 10 µM
IC50 (second compound 0.0316 µM): > 10 µM
IC50 (second compound 0.1 µM): > 10 µM
IC50 (second compound 0.316 µM): > 10 µM
IC50 (second compound 1 µM): > 10 µM
viability, T/C [1]: 98.4%
viability, T/C [2]: 85%
viability, T/C (second compound 0.00316 µM, first compound 0.316 µM): 102%
viability, T/C (second compound 0.00316 µM, first compound 1 µM): 84.3%
viability, T/C (second compound 0.00316 µM, first compound 3.16 µM): 100%
viability, T/C (second compound 0.00316 µM, first compound 10 µM): 104%
viability, T/C [3]: 95.4%
viability, T/C [4]: 90.4%
viability, T/C (second compound 0.01 µM, first compound 0.316 µM): 102%
viability, T/C (second compound 0.01 µM, first compound 1 µM): 93%
viability, T/C (second compound 0.01 µM, first compound 3.16 µM): 99.3%
viability, T/C (second compound 0.01 µM, first compound 10 µM): 85.1%
viability, T/C [5]: 94.6%
viability, T/C [6]: 87.7%
viability, T/C (second compound 0.0316 µM, first compound 0.316 µM): 94.2%
viability, T/C (second compound 0.0316 µM, first compound 1 µM): 99.9%
viability, T/C (second compound 0.0316 µM, first compound 3.16 µM): 96.9%
viability, T/C (second compound 0.0316 µM, first compound 10 µM): 103%
viability, T/C [7]: 87.1%
viability, T/C [8]: 93.6%
viability, T/C (second compound 0.1 µM, first compound 0.316 µM): 90%
viability, T/C (second compound 0.1 µM, first compound 1 µM): 100%
viability, T/C (second compound 0.1 µM, first compound 3.16 µM): 97.5%
viability, T/C (second compound 0.1 µM, first compound 10 µM): 91.3%
viability, T/C [9]: 87.7%
viability, T/C [10]: 93.8%
viability, T/C (second compound 0.316 µM, first compound 0.316 µM): 84.9%
viability, T/C (second compound 0.316 µM, first compound 1 µM): 94.3%
viability, T/C (second compound 0.316 µM, first compound 3.16 µM): 92.5%
viability, T/C (second compound 0.316 µM, first compound 10 µM): 90.9%
viability, T/C [11]: 98.1%
viability, T/C [12]: 89%
viability, T/C (second compound 1 µM, first compound 0.316 µM): 91.3%
viability, T/C (second compound 1 µM, first compound 1 µM): 84%
viability, T/C (second compound 1 µM, first compound 3.16 µM): 94.3%
viability, T/C (second compound 1 µM, first compound 10 µM): 80.8%
